The subject of experiment [1] is differentiated human THP-1 cells. Briefly: stimulated release of TNF-α from differentiated human THP-1 cells (ELISA, dose-response). Type of experiment: cell-based. An outline of the steps: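 Human THP-1 cells were PMA-differentiated toward macrophages, and stimulated TNF-α release was measured by ELISA. EC50 values were taken from dose-response curves.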
For orientation: An ELISA detects its analyte on a solid surface through an enzyme-linked reagent.

The subject of the next experiment is mouse macrophages. Briefly: stimulated release of TNF-α from mouse macrophages. The format is cell-based. The note with it: Macrophage. The procedure, abridged:
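EC50 derived from dose-response curves for stimulated TNF-α release from mouse macrophages.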

The mark [2] stands for this setting: Homo sapiens, THP-1, Table 3, TNF-α release from human THP-1 cells, read-out: EC50 (nM) (THP-1).
The mark [3] stands for this setting: Table 3, TNF-α release from mouse macrophages, read-out: EC50 (nM) (mouse).
[4] abbreviates: Homo sapiens, THP-1, table of 125-132 (one lipid side chain, R and S), human THP-1 cells, read-out: EC50 (nM) (THP-1).
Setting [5] is: table of 125-132 (one lipid side chain, R and S), mouse macrophages, read-out: EC50 (nM) (mouse).
[6] abbreviates: Homo sapiens, THP-1, table of 140-146 (four lipid side chains), human THP-1 cells, read-out: EC50 (nM) (THP-1).
Setting [7] is: table of 140-146 (four lipid side chains), mouse macrophages, read-out: EC50 (nM) (mouse).
The mark [8] stands for this setting: Homo sapiens, THP-1, Scheme 1, footnote a, read-out: EC50 TNF-α release from human THP-1 cells.
[9] abbreviates: Mus musculus, Scheme 1, footnote b, read-out: EC50 TNF-α release from mouse macrophages.

Like-named read-outs stand apart in the source and are kept apart here.

For orientation: EC50 means the concentration at which the effect is half-maximal. With `O=C(N[C@H]1C[C@@H]1c1ccccc1)[C@@H]1CN(C(=O)c2ccc(C(=O)N3C[C@@H](C(=O)N[C@H]4C[C@@H]4c4ccccc4)[C@H](C(=O)N[C@H]4C[C@@H]4c4ccccc4)C3)s2)C[C@H]1C(=O)N[C@H]1C[C@@H]1c1ccccc1` [Compound 49, (3S,3′S,4S,4′S)-1,1′-(Thiophene-2,5-dicarbonyl)-bis(N^3,N^4-bis((1S,2R)-2-phenylcyclopropyl)-pyrrolidine-3,4-dicarboxamide)], the EC50 is 350 nM in experiment [1] (setting [2]) and more than 5000 nM in the experiment with mouse macrophages (setting [3]).
For `O=C(NCCc1ccc(F)cc1)[C@@H]1CN(C(=O)[C@H]2CC[C@@H](C(=O)N3C[C@@H](C(=O)NCCc4ccc(F)cc4)[C@H](C(=O)NCCc4ccc(F)cc4)C3)CC2)C[C@H]1C(=O)NCCc1ccc(F)cc1` [Compound 108, (3S,3′S,4S,4′S)-1,1′-((1R,4R)-Cyclohexane-1,4-dicarbonyl)bis(N^3,N^4-bis(4-fluorophenethyl)-pyrrolidine-3,4-dicarboxamide)], the EC50 in experiment [1] (Homo sapiens, THP-1, Table 7, TNF-α release from human THP-1 cells, read-out: EC50 (nM) (THP-1)) is more than 5000 nM; with mouse macrophages (Table 7, TNF-α release from mouse macrophages, read-out: EC50 (nM) (mouse)), more than 5000 nM.
Turning to `CCCCCCCCCCNC(=O)[C@H]1CCN(C(=O)c2ccc(C(=O)N3C[C@@H](C(=O)N[C@H]4C[C@@H]4c4ccccc4)[C@H](C(=O)N[C@H]4C[C@@H]4c4ccccc4)C3)cc2)C1` [Compound 132, (3S,4S)-1-(4-((S)-3-(Decylcarbamoyl)pyrrolidine-1-carbonyl)benzoyl)—N^3,N^4-bis((1S,2R)-2-phenyl-cyclopropyl)pyrrolidine-3,4-dicarboxamide], the EC50 in experiment [1] (setting [4]) worked out at 33 nM; in the experiment on mouse macrophages (setting [5]) it was 1800 nM.
For the molecule `O=C(N[C@H]1C[C@@H]1c1ccccc1)[C@@H]1CN(C(=O)c2ccc(C(=O)N3C[C@@H](C(=O)N[C@H]4C[C@@H]4c4ccccc4)[C@H](C(=O)N[C@H]4C[C@@H]4c4ccccc4)C3)c([N+](=O)[O-])c2)C[C@H]1C(=O)N[C@H]1C[C@@H]1c1ccccc1` [Compound 54, (3S,3′S,4S,4′S)-1,1′-(2-Nitroterephthaloyl)-bis(N^3,N^4-bis((1S,2R)-2-phenylcyclopropyl)pyrrolidine-3,4-dicarboxamide)], the EC50 in experiment [1] (setting [2]) was 20 nM; in the experiment on mouse macrophages (setting [3]), more than 5000 nM.
Take `CCCCCCCCCCCCNC(=O)[C@@H]1CN(C(=O)c2ccc(C(=O)N3C[C@@H](C(=O)NCCCCCCCCCCCC)[C@H](C(=O)NCCCCCCCCCCCC)C3)cc2)C[C@H]1C(=O)NCCCCCCCCCCCC` [Compound 142, (3S,3′S,4S,4′S)-1,1′-Terephthaloylbis(N^3,N^4-didodecylpyrrolidine-3,4-dicarboxamide)]: the EC50 (in experiment [1] (setting [6]); in the experiment on mouse macrophages (setting [7])) was more than 5000 nM each time.
Take `O=C(N[C@@H]1C[C@H]1c1ccccc1)[C@H]1CN(C(=O)c2ccc(C(=O)N3C[C@H](C(=O)N[C@@H]4C[C@H]4c4ccccc4)[C@@H](C(=O)N[C@@H]4C[C@H]4c4ccccc4)C3)cc2)C[C@@H]1C(=O)N[C@@H]1C[C@H]1c1ccccc1` [Compound 21, (3R,3′R,4R,4′R)-1,1′-Terephthaloylbis-(N^3,N^4-bis((1R,2S)-2-phenylcyclopropyl)pyrrolidine-3,4-dicarboxamide)]: the EC50 (in experiment [1] (setting [8]); in the experiment with mouse macrophages (setting [9])) was more than 5000 nM throughout.
`CCCCNC(=O)[C@@H]1CN(C(=O)c2ccc(C(=O)N3C[C@@H](C(=O)N[C@H]4C[C@@H]4c4ccccc4)[C@H](C(=O)N[C@H]4C[C@@H]4c4ccccc4)C3)cc2)C[C@H]1C(=O)NCCCC` [Compound 139, (3S,4S)-1-(4-((3S,4S)-3,4-Bis(((1S,2R)-2-phenylcyclopropyl)carbamoyl)pyrrolidine-1-carbonyl)benzoyl)-N^3,N^4-dibutylpyrrolidine-3,4-dicarboxamide]: the concentration giving a half-maximal response (EC50) amounted to 50 nM in experiment [1] (Homo sapiens, THP-1, table of 133-139 (two lipid side chains), human THP-1 cells, read-out: EC50 (nM) (THP-1)) and 360 nM in the experiment on mouse macrophages (table of 133-139 (two lipid side chains), mouse macrophages, read-out: EC50 (nM) (mouse)).
Take `O=C(N[C@H]1C[C@@H]1c1ccccc1)C1CN(C(=O)C#CC(=O)N2C[C@@H](C(=O)N[C@H]3C[C@@H]3c3ccccc3)[C@H](C(=O)N[C@H]3C[C@@H]3c3ccccc3)C2)C[C@H]1C(=O)N[C@H]1C[C@@H]1c1ccccc1` (stereo partly drawn) [Compound 35, (3S,3′S,4S,4′S)-1,1′-(But-2-ynedioyl)-bis(N^3,N^4-bis((1S,2R)-2-phenylcyclopropyl)-pyrrolidine-3,4-dicarboxamide)]: the EC50 in experiment [1] (Homo sapiens, THP-1, Table 1, TNF-α release from human THP-1 cells, read-out: EC50 (nM) (THP-1)) was more than 5000 nM; with mouse macrophages (Table 1, TNF-α release from mouse macrophages, read-out: EC50 (nM) (mouse)), more than 5000 nM.
For `O=C(N[C@H]1C[C@@H]1c1ccccc1)[C@@H]1CN(C(=O)c2cnc(C(=O)N3C[C@@H](C(=O)N[C@H]4C[C@@H]4c4ccccc4)[C@H](C(=O)N[C@H]4C[C@@H]4c4ccccc4)C3)cn2)C[C@H]1C(=O)N[C@H]1C[C@@H]1c1ccccc1` [Compound 50, (3S,3′S,4S,4′S)-1,1′-(Pyrazine-2,5-dicarbonyl)-bis(N^3,N^4-bis((1S,2R)-2-phenylcyclopropyl)-pyrrolidine-3,4-dicarboxamide)], the concentration for a half-maximal effect (EC50) in experiment [1] (setting [2]) is 130 nM; in the experiment with mouse macrophages (setting [3]), more than 5000 nM.
As for `O=C(N[C@H]1C[C@@H]1c1ccccc1)[C@H]1CN(C(=O)c2ccc(C(=O)N3C[C@@H](C(=O)N[C@@H]4C[C@H]4c4ccccc4)[C@H](C(=O)N[C@@H]4C[C@H]4c4ccccc4)C3)cc2)C[C@@H]1C(=O)N[C@H]1C[C@@H]1c1ccccc1` [Compound 23, (3R,4R)-1-(4-((3S,4S)-3,4-Bis(((1R,2S)-2-phenyl-cyclopropyl)carbamoyl)-pyrrolidine-1-carbonyl)-benzoyl)—N^3,N^4-bis((1S,2R)-2-phenylcyclopropyl)-pyrrolidine-3,4-dicarboxamide], the half-maximal effective concentration (EC50) (in experiment [1] (setting [8]); in the experiment with mouse macrophages (setting [9])) was more than 5000 nM in each case.
Turning to `CCCCCCCCCCCCNC(=O)[C@H]1CCN(C(=O)c2ccc(C(=O)N3C[C@@H](C(=O)N[C@H]4C[C@@H]4c4ccccc4)[C@H](C(=O)N[C@H]4C[C@@H]4c4ccccc4)C3)cc2)C1` [Compound 131, (3S,4S)-1-(4-((S)-3-(Dodecylcarbamoyl)-pyrrolidine-1-carbonyl)benzoyl)—N^3,N^4-bis((1S,2R)-2-phenylcyclopropyl)pyrrolidine-3,4-dicarboxamide], the EC50 stood at 4 nM in experiment [1] (setting [4]) and 1000 nM in the experiment with mouse macrophages (setting [5]).
`CCCCCCCCCCCCCCNC(=O)[C@@H]1CN(C(=O)c2ccc(C(=O)N3C[C@@H](C(=O)NCCCCCCCCCCCCCC)[C@H](C(=O)NCCCCCCCCCCCCCC)C3)cc2)C[C@H]1C(=O)NCCCCCCCCCCCCCC` [Compound 141, (3S,3′S,4S,4′S)-1,1′-Terephthaloylbis(N^3,N^4-ditetradecylpyrrolidine-3,4-dicarboxamide)]: the EC50 (in experiment [1] (setting [6]); with mouse macrophages (setting [7])) was more than 5000 nM each time.
On to `CCCCCCCCCCCCCCCCNC(=O)[C@@H]1CCN(C(=O)c2ccc(C(=O)N3C[C@@H](C(=O)N[C@H]4C[C@@H]4c4ccccc4)[C@H](C(=O)N[C@H]4C[C@@H]4c4ccccc4)C3)cc2)C1` [Compound 125, (3S,4S)-1-(4-((R)-3-(Hexadecylcarbamoyl)-pyrrolidine-1-carbonyl)benzoyl)-N^3,N^4-bis((1S,2R)-2-phenylcyclopropyl)pyrrolidine-3,4-dicarboxamide], for which the EC50 was 15 nM in experiment [1] (table of 125-132 (one lipid side chain, R and S), human THP-1 cells, read-out: EC50 (nM) (THP-1)); more than 5000 nM in the experiment with mouse macrophages (setting [5]).
Take `O=C(N[C@H]1C[C@@H]1c1ccccc1)[C@@H]1CN(C(=O)c2ccc(C(=O)N3C[C@@H](C(=O)N[C@@H]4C[C@H]4c4ccccc4)[C@H](C(=O)N[C@@H]4C[C@H]4c4ccccc4)C3)cc2)C[C@H]1C(=O)N[C@H]1C[C@@H]1c1ccccc1` [Compound 25, (3S,4S)-1-(4-((3S,4S)-3,4-Bis(((1R,2S)-2-phenylcyclopropyl)carbamoyl)-pyrrolidine-1-carbonyl)-benzoyl)—N^3,N^4-bis((1S,2R)-2-phenylcyclopropyl)-pyrrolidine-3,4-dicarboxamide]: the 50% effective concentration (EC50) in experiment [1] (setting [8]) was 6 nM; in the experiment with mouse macrophages (setting [9]), more than 5000 nM.
Consider `CCCCCCCCNC(=O)[C@@H]1CN(C(=O)c2ccc(C(=O)N3C[C@@H](C(=O)NCCCCCCCC)[C@H](C(=O)NCCCCCCCC)C3)cc2)C[C@H]1C(=O)NCCCCCCCC` [Compound 144, (3S,3′S,4S,4′S)-1,1′-Terephthaloylbis(N^3,N^4-dioctylpyrrolidine-3,4-dicarboxamide)], for which the concentration giving a half-maximal response (EC50) (in experiment [1] (setting [6]); in the experiment with mouse macrophages (setting [7])) was more than 5000 nM each time.
As for `Cc1cc(C(=O)N2C[C@@H](C(=O)N[C@H]3C[C@@H]3c3ccccc3)[C@H](C(=O)N[C@H]3C[C@@H]3c3ccccc3)C2)c(C)cc1C(=O)N1C[C@@H](C(=O)N[C@H]2C[C@@H]2c2ccccc2)[C@H](C(=O)N[C@H]2C[C@@H]2c2ccccc2)C1` [Compound 63, (3S,3′S,4S,4′S)-1,1′-(2,5-Dimethylterephthaloyl)-bis(N^3,N^4-bis((1S,2R)-2-phenylcyclopropyl)pyrrolidine-3,4-dicarboxamide)], the 50% effective concentration (EC50) (in experiment [1] (setting [2]); in the experiment on mouse macrophages (setting [3])) was more than 5000 nM each time.
As for `O=C(N[C@H]1C[C@@H]1c1ccccc1)[C@@H]1CN(C(=O)c2ccc(C(=O)N3C[C@@H](C(=O)N[C@H]4C[C@@H]4c4ccccc4)[C@H](C(=O)N[C@H]4C[C@@H]4c4ccccc4)C3)c(O)c2)C[C@H]1C(=O)N[C@H]1C[C@@H]1c1ccccc1` [Compound 53, (3S,3′S,4S,4′S)-1,1′-(2-Hydroxyterephthaloyl)-bis(N^3,N^4-bis((1S,2R)-2-phenylcyclopropyl)pyrrolidine-3,4-dicarboxamide)], the 50% effective concentration (EC50) in experiment [1] (setting [2]) came out at 0.2 nM; in the experiment on mouse macrophages (setting [3]) it was 130 nM.

(Values after US11040959B2, “Diprovocims: a new and potent class of TLR agonists” (The Scripps Research Institute, priority 2016, dated 2021).)
